From US11679111B2, “Fatty acid synthase inhibitors” (priority 2016, dated 2023) come the findings set out here.

Where two headings read alike, the source gives them in different places.

One data set in a line: in vivo. The conditions noted are these: MMTV-Neu, mouse, 15 mg/kg, n=3.
A further data set has as its system HIV-1. As to the kind of experiment: HIV/TZM-bl assay, extracellular p24 ELISA. Type of data set: cell-based. The method, then:
HS-106 or C75 were dissolved in DMSO to achieve 10 mM stock concentration. The stock solution of each drug was serially diluted 3-fold with DMSO and 2 μL of each dilution was added to each well to achieve final concentration range from 10 μM to 4.6 nM fixing final [DMSO] at 1%. HIVNL4.3 was added to 3×10^4 TZM-bl cells at 10 ng/ml p24 equivalents in the presence of 15 μg/mL DEAE dextran. HIV-infected cells were incubated at 37° C. in 5% CO2 for 24 hours, washed with PBS, fresh media was added, and cell were incubated for another 24 hours. Supernatants were collected and stored at −80° C. until P24 ELISA assay. HIV-1 replication was assessed by quantitative p24 ELISA. Nevirapine (positive control) was obtained from the AIDS Reagent Repository and was used at […].

The target of the next data set is T1, human FASN (Homo sapiens, UniProt P49327).
T1 construct: endogenous in cells; host or cells: BT474 cells; endogenous enzyme purified by ammonium sulfate cuts and Sephacryl S-300 gel filtration, about 85% pure
In words: FASN activity assay, 2-[14C] malonyl CoA incorporation into lipids by purified enzyme. Type of data set: biochemical. The method, then: Human FASN activity was measured by monitoring the incorporation of 2-[^14C] malonyl CoA into fatty acids using liquid scintillation counting by a method similar to the one described by Richardson et al (Richardson and Smith, 2007). FASN (10 μg/ml of PBS containing 1 mM DTT and 1 mM EDTA) was pre-incubated with different concentrations of HS-106 (final DMSO concentration 1%) at 37° C. for 30 minutes, then substrates were added (20 μM acetyl CoA and 200 μM NADPH) in a total reaction volume of 100 μl. The reaction was initiated by adding 10 μl of 50 μM malonyl CoA spiked with 0.05 μCi of 2-[^14C] malonyl CoA. After incubation for 30 minutes at 37° C., lipids were extracted 3 times with 150 μl (2:1, v/v) chloroform:methanol. Then, to the pooled organic phases, 1 ml of toluene containing 25 g/L Butyl-PBD was added and radioactivity was measured by liquid scintillation counting.
Confluent BT474 cells grown in high glucose DMEM with 10% FBS, were scraped and washed two times with ice cold PBS. […]
Human FASN activity was measured by monitoring the incorporation of 2-[^14C] […] Then, to the pooled organic phase, 1 ml of Toluene containing […] Butyl PBD was added and radioactivity was measured by scintillation counting. […]

T1 sequence (P49327 whole entry): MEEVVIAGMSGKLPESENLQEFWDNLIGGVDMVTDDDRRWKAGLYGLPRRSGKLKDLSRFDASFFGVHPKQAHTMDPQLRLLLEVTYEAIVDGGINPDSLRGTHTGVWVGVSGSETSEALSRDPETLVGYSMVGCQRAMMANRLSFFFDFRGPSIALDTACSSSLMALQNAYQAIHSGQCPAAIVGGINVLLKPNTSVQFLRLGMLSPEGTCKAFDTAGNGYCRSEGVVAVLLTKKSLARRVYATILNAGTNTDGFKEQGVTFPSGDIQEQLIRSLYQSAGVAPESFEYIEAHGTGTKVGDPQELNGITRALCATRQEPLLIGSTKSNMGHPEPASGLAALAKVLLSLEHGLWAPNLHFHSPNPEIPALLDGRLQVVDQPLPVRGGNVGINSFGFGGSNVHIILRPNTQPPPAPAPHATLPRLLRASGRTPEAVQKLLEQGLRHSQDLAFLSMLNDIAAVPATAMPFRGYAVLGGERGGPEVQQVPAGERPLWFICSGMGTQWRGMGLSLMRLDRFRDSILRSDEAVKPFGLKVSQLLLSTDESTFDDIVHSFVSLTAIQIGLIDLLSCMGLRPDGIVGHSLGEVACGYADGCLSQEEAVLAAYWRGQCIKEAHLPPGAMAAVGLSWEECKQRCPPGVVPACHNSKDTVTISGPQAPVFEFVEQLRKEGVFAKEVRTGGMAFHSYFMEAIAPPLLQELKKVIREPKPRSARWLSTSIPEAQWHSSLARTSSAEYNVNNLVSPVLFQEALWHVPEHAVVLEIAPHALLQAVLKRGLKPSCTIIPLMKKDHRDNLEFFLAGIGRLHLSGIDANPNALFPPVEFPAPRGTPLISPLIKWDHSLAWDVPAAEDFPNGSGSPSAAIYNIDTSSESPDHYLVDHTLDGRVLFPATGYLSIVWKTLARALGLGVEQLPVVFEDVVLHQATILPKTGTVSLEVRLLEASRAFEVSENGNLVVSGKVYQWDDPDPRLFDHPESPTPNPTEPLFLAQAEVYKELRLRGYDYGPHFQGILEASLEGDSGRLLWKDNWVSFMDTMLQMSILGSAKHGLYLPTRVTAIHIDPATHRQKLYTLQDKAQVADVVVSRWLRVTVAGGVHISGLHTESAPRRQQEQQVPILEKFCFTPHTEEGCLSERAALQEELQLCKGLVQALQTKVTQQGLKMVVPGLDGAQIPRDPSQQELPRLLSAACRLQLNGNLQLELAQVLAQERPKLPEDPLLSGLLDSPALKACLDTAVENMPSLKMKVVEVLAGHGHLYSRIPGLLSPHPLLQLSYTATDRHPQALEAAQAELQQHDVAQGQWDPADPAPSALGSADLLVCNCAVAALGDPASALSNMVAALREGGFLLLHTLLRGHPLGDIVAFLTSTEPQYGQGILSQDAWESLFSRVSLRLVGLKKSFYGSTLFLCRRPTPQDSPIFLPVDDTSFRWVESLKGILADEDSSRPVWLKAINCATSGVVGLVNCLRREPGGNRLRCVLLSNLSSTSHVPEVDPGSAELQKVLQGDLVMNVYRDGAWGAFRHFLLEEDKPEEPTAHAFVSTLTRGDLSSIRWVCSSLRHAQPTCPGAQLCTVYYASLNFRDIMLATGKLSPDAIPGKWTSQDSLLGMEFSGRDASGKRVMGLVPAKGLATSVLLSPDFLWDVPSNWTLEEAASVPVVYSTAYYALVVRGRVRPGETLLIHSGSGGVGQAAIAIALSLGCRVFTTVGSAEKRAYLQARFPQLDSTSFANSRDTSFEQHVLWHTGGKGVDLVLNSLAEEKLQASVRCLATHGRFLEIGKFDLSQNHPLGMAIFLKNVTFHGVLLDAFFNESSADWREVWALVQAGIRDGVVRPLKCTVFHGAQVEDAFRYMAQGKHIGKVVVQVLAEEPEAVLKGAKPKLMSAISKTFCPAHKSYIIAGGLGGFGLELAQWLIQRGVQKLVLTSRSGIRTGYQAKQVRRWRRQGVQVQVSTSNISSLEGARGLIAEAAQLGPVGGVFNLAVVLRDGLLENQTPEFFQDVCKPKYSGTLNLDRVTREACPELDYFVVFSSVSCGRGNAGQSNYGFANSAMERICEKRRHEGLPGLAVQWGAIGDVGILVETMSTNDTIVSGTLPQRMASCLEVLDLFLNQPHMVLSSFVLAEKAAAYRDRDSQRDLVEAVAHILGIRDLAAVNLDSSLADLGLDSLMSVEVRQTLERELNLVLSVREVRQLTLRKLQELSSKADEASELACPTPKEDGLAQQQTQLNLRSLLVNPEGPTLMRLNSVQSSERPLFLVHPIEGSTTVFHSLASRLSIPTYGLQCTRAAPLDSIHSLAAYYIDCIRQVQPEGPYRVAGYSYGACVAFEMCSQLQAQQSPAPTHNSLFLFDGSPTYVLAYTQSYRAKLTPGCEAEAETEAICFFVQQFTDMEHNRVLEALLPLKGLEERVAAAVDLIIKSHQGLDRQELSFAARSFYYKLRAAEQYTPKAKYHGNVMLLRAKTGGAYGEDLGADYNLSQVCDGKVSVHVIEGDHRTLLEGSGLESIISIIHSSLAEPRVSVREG

As a reminder, the half-life is the time in which the quantity being followed falls by half. A higher half-life goes with slow loss. By EC50 is commonly meant the concentration needed to bring the measured effect to its halfway point. What is called IC50 is the point on the concentration scale where inhibition reaches its midpoint. Turning to `Cc1sc2ncnc(NC3CCN(Cc4ccccc4)C3)c2c1C` (racemic) [HS-106, N-(1-benzylpyrrolidin-3-yI)-5,6-dimethylthieno[2,3-d]pyrimidin-4-amine], the half-life stood at 65.71 ± 0.32 min in “in vivo” (T1/2 tumor tissue); 9.9 ± 0.01 min in the data set “in vivo” (ip, T1/2 kidney, 15 mg/kg IP); 9.84 ± 0.09 min in the data set “in vivo” (ip, T1/2 liver, 15 mg/kg IP); 9.81 ± 0.02 min in “in vivo” (ip, T1/2 plasma, 15 mg/kg IP). Besides, in the data set on HIV-1 (Human immunodeficiency virus 1, TZM-bl cells, 48 hours post infection, read-out: EC50, HIV-1 p24 production), the EC50 is 213 nM. In the data set on HIV-1 (TZM-bl model), the “antiviral index (TC50/EC50)” value is given as 47. Also, the half-maximal inhibitory concentration (IC50) on human FASN was determined as 3710 nM; at human FASN (FIG. 2E, read-out: IC50, native human FASN (purified)), 46 nM.
